Measurements published in US11000033B2, “Ketone or oxime compound, and herbicide” (NISSAN CHEMICAL CORPORATION, priority 2014, dated 2021).

How the values were obtained:
Format in all cases: in vivo
[1] = tested on: directly sowed rice plant; test: Test Example 3: effect on crop by foliage application, Wagner pot (symbol b); details: application herbicide amount 320 g/ha
How it was run: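 Greenhouse culture at 25–30 °C of seeded rice, Cyperus difformis, Leptochloa chinensis and Echinochloa crus-galli var. crus-galli, in alluvial soil held under 0.1–0.5 cm of water in a Wagner pot.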

[2] = tested on: wheat; test: Test Example 5: effect on crop by foliage application, plastic box (symbol e); details: 320 g/ha, 3 weeks after application
How it was run: (§1)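 Greenhouse culture at 25° C. to 30° C. followed spot-like sowing into sterilized diluvial soil, with seed covered by roughly 1.5 cm of soil.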

[3] = tested on: Avena fatua; test: Test Example 5: herbicidal effect by foliage application, plastic box (symbol I); details: 320 g/ha, 3 weeks after application
How it was run: (§2)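 Herbicide, formulated as an emulsion and diluted in water, is sprayed onto the aerial parts of 14-day seedlings. These were grown at 25° C. to 30° C. in sterilized diluvial soil; effects are graded after 3 weeks.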

[4] = tested on: soybean; test: Test Example 5: effect on crop by foliage application, plastic box (symbol d); details: 320 g/ha, 3 weeks after application
How it was run: as §1

[5] = tested on: Monochoria vaginalis; test: Test Example 2: herbicidal activity, application during weed generation in submerged conditions (symbol C); details: Table 23; application herbicide amount 320 g/ha; grade 0-5 by criteria of Test Example 1
How it was run: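 Read-out: herbicidal effect on each species rated on a visual scale 3 weeks after treatment. Plants were raised together from seed in flooded alluvial soil (4 cm water) at 25° C. to 30° C. and treated at one to two leaves by water-surface application of diluted emulsion.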

[6] = tested on: Cyperus difformis; test: Test Example 3: herbicidal effect by foliage application, Wagner pot (symbol E); details: application herbicide amount 320 g/ha
How it was run: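 Scoring took place 3 weeks after application, using fixed criteria. Plants had been raised from seed for 14 days at 25 to 30 °C in submerged alluvial soil before a diluted emulsion of the test compound was sprayed uniformly on the leaves.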

[7] = tested on: wheat; test: Test Example 4: effect on crop by soil treatment (symbol e); details: for e: wheat, effect grade on crop: 320 g/ha; for e (wheat) effect on crop grade: application herbicide amount 320 g/ha
How it was run: (§3)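 Crop seed is sown in spots together with several weed species in a box of sterilized diluvial soil. It is covered by about 1.5 cm of soil and kept in a greenhouse held between 25° C. and 30° C.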

[8] = tested on: Setaria viridis; test: Test Example 4: herbicidal effect by soil treatment (symbol G); details: for G: Setaria viridis, herbicidal effect grade: 320 g/ha; for G (Setaria viridis) herbicidal effect grade: application herbicide amount 320 g/ha
How it was run: (§4)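 Seeds were sown in sterilized diluvial soil, covered with about 1.5 cm of soil, and the soil surface was sprayed with a water-diluted emulsion of the compound at a predetermined rate. Plants grew in a greenhouse at 25° C. to 30° C.; effects were scored visually 3 weeks after application.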

[9] = tested on: Apera spica-venti; test: Test Example 4: herbicidal effect by soil treatment (symbol L); details: for L: Apera spica-venti, herbicidal effect grade: 320 g/ha; for L (Apera spica-venti) herbicidal effect grade: application herbicide amount 320 g/ha
How it was run: as §4

[10] = tested on: beet; test: Test Example 5: effect on crop by foliage application, plastic box (symbol f); details: 320 g/ha, 3 weeks after application
How it was run: as §1

[11] = tested on: Digitaria ciliaris; test: Test Example 5: herbicidal effect by foliage application, plastic box (symbol F); details: 320 g/ha, 3 weeks after application
How it was run: as §2

[12] = tested on: rice; test: Test Example 4: effect on crop by soil treatment (symbol b); details: for b: directly sowed rice plant, effect grade on crop: 320 g/ha; for b (directly sowed rice plant) effect on crop grade: application herbicide amount 320 g/ha
How it was run: as §3

[13] = tested on: Abutilon theophrasti; test: Test Example 4: herbicidal effect by soil treatment (symbol M); details: for M: Abutilon theophrasti, herbicidal effect grade: 320 g/ha; for M (Abutilon theophrasti) herbicidal effect grade: application herbicide amount 320 g/ha
How it was run: as §4

[14] = tested on: Stellaria media; test: Test Example 4: herbicidal effect by soil treatment (symbol P); details: for P: Stellaria media, herbicidal effect grade: 320 g/ha; for P (Stellaria media) herbicidal effect grade: application herbicide amount 320 g/ha
How it was run: as §4

[15] = tested on: Amaranthus retroflexus; test: Test Example 4: herbicidal effect by soil treatment (symbol N); details: for N: Amaranthus retroflexus, herbicidal effect grade: 320 g/ha; for N (Amaranthus retroflexus) herbicidal effect grade: application herbicide amount 320 g/ha
How it was run: as §4

[16] = tested on: Alopecurus myosuroides; test: Test Example 5: herbicidal effect by foliage application, plastic box (symbol J); details: 320 g/ha, 3 weeks after application
How it was run: as §2

SMILES	effect on crop b (directly sowed rice plant), grade 0-5 [1]	e: wheat, effect on crop (criteria 0-5) [2]	I: Avena fatua, herbicidal effect (criteria 0-5) [3]	d: soybean, effect on crop (criteria 0-5) [4]	Herbicidal effect grade, C: Monochoria vaginalis [5]	herbicidal effect on E, grade 0-5 [6]	e: wheat, effect grade on crop [7]	e: wheat, effect on crop grade [2]	I: Avena fatua, herbicidal effect grade [3]	d: soybean, effect on crop grade [4]	e (wheat) effect on crop grade [7]	G (Setaria viridis) herbicidal effect grade [8]	L (Apera spica-venti) herbicidal effect grade [9]	f: beet, effect on crop grade [10]	F: Digitaria ciliaris, herbicidal effect grade [11]	b (directly sowed rice plant) effect on crop grade [12]	M (Abutilon theophrasti) herbicidal effect grade [13]	P (Stellaria media) herbicidal effect grade [14]	N (Amaranthus retroflexus) herbicidal effect grade [15]	J: Alopecurus myosuroides, herbicidal effect grade [16]	further results
CON=C(C)CC1CC(OC(=O)COc2ccc(Br)cc2)=C(c2c(C)cc(C)cc2C)C1=O (centres unmarked) [1-081]	5 (Herbicidal ratio of 90% or more (almost completely withered))	4 (Herbicidal ratio of 70% or higher and lower than 90%)	5 (Herbicidal ratio of 90% or more (almost completely withered))	5 (Herbicidal ratio of 90% or more (almost completely withered))	3 (Herbicidal ratio of 40% or higher and lower than 70%)	5 (Herbicidal ratio of 90% or more (almost completely withered))	4 (Herbicidal ratio of 70% or higher and lower than 90%)														G: Setaria viridis, herbicidal effect grade [8]: 5 (Herbicidal ratio of 90% or more (almost completely withered)); L: Apera spica-venti, herbicidal effect grade [9]: 5 (Herbicidal ratio of 90% or more (almost completely withered)); f: beet, effect on crop (criteria 0-5) [10]: 0 (Herbicidal ratio of 5% or lower (almost no effect)); F: Digitaria ciliaris, herbicidal effect (criteria 0-5) [11]: 5 (Herbicidal ratio of 90% or more (almost completely withered)); b: directly sowed rice plant, effect grade on crop [12]: 5 (Herbicidal ratio of 90% or more (almost completely withered)); M: Abutilon theophrasti, herbicidal effect grade [13]: 4 (Herbicidal ratio of 70% or higher and lower than 90%); P: Stellaria media, herbicidal effect grade [14]: 0 (Herbicidal ratio of 5% or lower (almost no effect)); N: Amaranthus retroflexus, herbicidal effect grade [15]: 4 (Herbicidal ratio of 70% or higher and lower than 90%); J: Alopecurus myosuroides, herbicidal effect (criteria 0-5) [16]: 5 (Herbicidal ratio of 90% or more (almost completely withered))
CON=C(C)C(c1ccc(F)cc1)C1CC(O)=C(c2c(C)cc(C)cc2C)C1=O (centres unmarked) [1-049]	0 (Herbicidal ratio of 5% or lower (almost no effect))				0 (Herbicidal ratio of 5% or lower (almost no effect))	0 (Herbicidal ratio of 5% or lower (almost no effect))		0 (Herbicidal ratio of 5% or lower (almost no effect))	0 (Herbicidal ratio of 5% or lower (almost no effect))	0 (Herbicidal ratio of 5% or lower (almost no effect))	0 (Herbicidal ratio of 5% or lower (almost no effect))	0 (Herbicidal ratio of 5% or lower (almost no effect))	0 (Herbicidal ratio of 5% or lower (almost no effect))	0 (Herbicidal ratio of 5% or lower (almost no effect))	0 (Herbicidal ratio of 5% or lower (almost no effect))	0 (Herbicidal ratio of 5% or lower (almost no effect))	0 (Herbicidal ratio of 5% or lower (almost no effect))	0 (Herbicidal ratio of 5% or lower (almost no effect))	0 (Herbicidal ratio of 5% or lower (almost no effect))	0 (Herbicidal ratio of 5% or lower (almost no effect))	
CON=C(C)CC1CC(OC(=O)COc2cccc(OC)c2)=C(c2c(C)cc(C)cc2C)C1=O (centres unmarked) [1-068]	5 (Herbicidal ratio of 90% or more (almost completely withered))				3 (Herbicidal ratio of 40% or higher and lower than 70%)	5 (Herbicidal ratio of 90% or more (almost completely withered))		5 (Herbicidal ratio of 90% or more (almost completely withered))	5 (Herbicidal ratio of 90% or more (almost completely withered))	4 (Herbicidal ratio of 70% or higher and lower than 90%)	4 (Herbicidal ratio of 70% or higher and lower than 90%)	5 (Herbicidal ratio of 90% or more (almost completely withered))	5 (Herbicidal ratio of 90% or more (almost completely withered))	3 (Herbicidal ratio of 40% or higher and lower than 70%)	5 (Herbicidal ratio of 90% or more (almost completely withered))	5 (Herbicidal ratio of 90% or more (almost completely withered))	4 (Herbicidal ratio of 70% or higher and lower than 90%)	0 (Herbicidal ratio of 5% or lower (almost no effect))	4 (Herbicidal ratio of 70% or higher and lower than 90%)	5 (Herbicidal ratio of 90% or more (almost completely withered))	
CC(CC1CC(O)=C(c2c(C)cc(C)cc2C)C1=O)=NO (centres unmarked) [1-058]	5 (Herbicidal ratio of 90% or more (almost completely withered))				0 (Herbicidal ratio of 5% or lower (almost no effect))	5 (Herbicidal ratio of 90% or more (almost completely withered))		5 (Herbicidal ratio of 90% or more (almost completely withered))	5 (Herbicidal ratio of 90% or more (almost completely withered))	3 (Herbicidal ratio of 40% or higher and lower than 70%)	0 (Herbicidal ratio of 5% or lower (almost no effect))	5 (Herbicidal ratio of 90% or more (almost completely withered))	4 (Herbicidal ratio of 70% or higher and lower than 90%)	0 (Herbicidal ratio of 5% or lower (almost no effect))	5 (Herbicidal ratio of 90% or more (almost completely withered))	5 (Herbicidal ratio of 90% or more (almost completely withered))	4 (Herbicidal ratio of 70% or higher and lower than 90%)	0 (Herbicidal ratio of 5% or lower (almost no effect))	2 (Herbicidal ratio of 20% or higher and lower than 40%)	5 (Herbicidal ratio of 90% or more (almost completely withered))	
CON=C(C)CC1CC(OC(=O)COc2ccc(C(C)=O)cc2)=C(c2c(C)cc(C)cc2C)C1=O (centres unmarked) [1-080]	5 (Herbicidal ratio of 90% or more (almost completely withered))	4 (Herbicidal ratio of 70% or higher and lower than 90%)	5 (Herbicidal ratio of 90% or more (almost completely withered))	4 (Herbicidal ratio of 70% or higher and lower than 90%)	2 (Herbicidal ratio of 20% or higher and lower than 40%)	5 (Herbicidal ratio of 90% or more (almost completely withered))	4 (Herbicidal ratio of 70% or higher and lower than 90%)														G: Setaria viridis, herbicidal effect grade [8]: 5 (Herbicidal ratio of 90% or more (almost completely withered)); L: Apera spica-venti, herbicidal effect grade [9]: 5 (Herbicidal ratio of 90% or more (almost completely withered)); f: beet, effect on crop (criteria 0-5) [10]: 0 (Herbicidal ratio of 5% or lower (almost no effect)); F: Digitaria ciliaris, herbicidal effect (criteria 0-5) [11]: 5 (Herbicidal ratio of 90% or more (almost completely withered)); b: directly sowed rice plant, effect grade on crop [12]: 5 (Herbicidal ratio of 90% or more (almost completely withered)); M: Abutilon theophrasti, herbicidal effect grade [13]: 4 (Herbicidal ratio of 70% or higher and lower than 90%); P: Stellaria media, herbicidal effect grade [14]: 0 (Herbicidal ratio of 5% or lower (almost no effect)); N: Amaranthus retroflexus, herbicidal effect grade [15]: 5 (Herbicidal ratio of 90% or more (almost completely withered)); J: Alopecurus myosuroides, herbicidal effect (criteria 0-5) [16]: 5 (Herbicidal ratio of 90% or more (almost completely withered))
